From patent US7504513B2, “Thiazolyl-benzimidazoles” (Hoffman-La Roche Inc., priority 2006, dated 2009)

Target: T1, GST-Plk1 (Homo sapiens, UniProt P53350)
T1 construct: Full-length, active GST-Plk1 was purified from Sf9 insect cells; made in house; host or cells: Sf9 insect cells
Experiment: Biochemical Characterization Assay: HTRF kinase assay, GST-Plk1 phosphorylation of GST-p53
Conditions: full-length active GST-Plk1, GST-p53 substrate, ATP, 37° C. for 35 minutes, HTRF signal
Description: Full-length, active GST-Plk1 was purified from Sf9 insect cells, and full-length GST-p53 was purified in E. coli. Anti-phospho p53 antibody was purchased from Cell Signaling Technology. Europium-conjugated anti-rabbit antibody was purchased from PerkinElmer Life and Analytical Sciences. APC-conjugated anti-GST antibody was purchased from Prozyme.
To two microliters of compound (0.6 nM-4 mM) in DMSO or plain DMSO for control wells, 38 microliters of 20 mM HEPES pH 7, 50 mM NaCl, 10 mM MgCl2, 0.5 mM TCEP, 0.1 mM sodium orthovanadate, 0.1 mg/ml BSA, and 0.05% Triton X-100 (Kinase Assay Buffer) were added. Eight microliters of the compound solution were added to a 384-well black microtiter plate, followed by six microliters of GST-p53 (17 ug/ml) and ATP (333 uM) in Kinase Assay Buffer. Six microliters of GST-Plk1 (3 ug/ml) in Kinase Assay Buffer were then added and the solution incubated at 37° C. for 35 minutes. Six microliters of solution containing 43 mM EDTA to stop the reaction and a 1:600 dilution of anti-phospho-p53 antibody in 20 mM HEPES pH 7, 50 mM NaCl, and 0.5 mg/ml BSA (Antibody Binding Buffer) were added and the solution incubated at 37° C. for 30 minutes. Six microliters of solution containing 9 nM europium-conjugated anti-rabbit antibody and 120 nM APC-conjugated anti-GST antibody in Antibody Binding Buffer were then added and the mixture incubated at room temperature for 1.5 hours. The HTRF signal was read on the Envision reader (PerkinElmer Life and Analytical Sciences).

T1 sequence (P53350 whole entry): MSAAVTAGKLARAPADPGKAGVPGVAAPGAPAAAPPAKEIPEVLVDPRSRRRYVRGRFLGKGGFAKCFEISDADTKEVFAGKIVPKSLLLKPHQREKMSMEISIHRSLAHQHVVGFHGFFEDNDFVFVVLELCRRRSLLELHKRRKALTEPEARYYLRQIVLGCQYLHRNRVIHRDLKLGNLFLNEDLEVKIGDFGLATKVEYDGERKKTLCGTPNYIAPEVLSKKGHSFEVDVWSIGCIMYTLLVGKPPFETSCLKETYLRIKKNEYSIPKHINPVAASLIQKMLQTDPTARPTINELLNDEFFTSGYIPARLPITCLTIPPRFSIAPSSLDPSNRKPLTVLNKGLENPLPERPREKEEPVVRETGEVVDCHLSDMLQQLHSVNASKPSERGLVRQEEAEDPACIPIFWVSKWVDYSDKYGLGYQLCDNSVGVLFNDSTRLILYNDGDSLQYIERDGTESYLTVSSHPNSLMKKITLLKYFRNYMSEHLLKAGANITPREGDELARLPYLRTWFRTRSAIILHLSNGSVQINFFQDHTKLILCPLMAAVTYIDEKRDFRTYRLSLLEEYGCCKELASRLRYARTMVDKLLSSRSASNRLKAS

In order of rising IC50:
1. COc1cc2ncn(-c3nc(-c4cccc(Cl)c4)c(C(=O)NNC(=O)c4cccs4)s3)c2cc1OC [Example 53, Thiophene-2-carboxylic acid N′-[4-(3-chloro-phenyl)-2-(5,6-dimethoxybenzoimidazol-1-yl)-thiazole-5-carbonyl]-hydrazide]  0.018 µM
2. COc1cc2ncn(-c3nc(-c4cccc(Br)c4)c(C(=O)O)s3)c2cc1OC [Example 42, 4-(3-Bromo-phenyl)-2-(5,6-dimethoxy-benzoimidazol-1-yl)-thiazole-5-carboxylic acid]  0.04 µM
3. COc1cc2ncn(-c3nc(-c4cccc(Cl)c4)c(C(=O)Nc4ccncn4)s3)c2cc1OC [Example 54, 4-(3-Chloro-phenyl)-2-(5,6-dimethoxy-benzoimidazol-1-yl)-thiazole-5-carboxylic acid pyrimidin-4-ylamide]  0.047 µM
4. COc1cc2ncn(-c3nc(-c4cc(Cl)cc(Cl)c4)c(C(=O)O)s3)c2cc1OC [Example 41, 4-(3,5-Dichloro-phenyl)-2-(5,6-dimethoxy-benzoimidazol-1-yl)-thiazole-5-carboxylic acid]  0.066 µM
5. COc1cc2ncn(-c3nc(-c4ccnc(Cl)c4)c(C(=O)O)s3)c2cc1OC [Example 64, 4-(2-Chloro-pyridin-4-yl)-2-(5,6-dimethoxy-benzoimidazol-1-yl)-thiazole-5-carboxylic acid]  0.075 µM
6. C=Cc1cccc(-c2nc(-n3cnc4cc(OC)c(OC)cc43)sc2C(=O)O)c1 [Example 40, 2-(5,6-Dimethoxy-benzoimidazol-1-yl)-4-(3-vinyl-phenyl)-thiazole-5-carboxylic acid]  0.102 µM
7. COc1cc2ncn(-c3nc(-c4cccc(C(F)(F)F)c4)c(C(=O)O)s3)c2cc1OC [Example 43, 2-(5,6-Dimethoxy-benzoimidazol-1-yl)-4-(3-trifluoromethyl-phenyl)-thiazole-5-carboxylic acid]  0.157 µM
8. COc1cc2ncn(-c3nc(-c4cccc(O)c4)c(C(=O)O)s3)c2cc1OC [Example 34, 2-(5,6-Dimethoxy-benzoimidazol-1-yl)-4-(3-hydroxy-phenyl)-thiazole-5-carboxylic acid]  0.211 µM
9. COc1cccc(NC(=O)c2sc(-n3cnc4cc(OC)c(OC)cc43)nc2-c2cccc(Cl)c2)c1 [Example 55, 4-(3-Chloro-phenyl)-2-(5,6-dimethoxy-benzoimidazol-1-yl)-thiazole-5-carboxylic acid (3-methoxy-phenyl)-amide]  0.25 µM
10. COc1cc2ncn(-c3nc(-c4cccc(Cl)c4)c(C(=O)Nc4nccs4)s3)c2cc1OC [Example 56, 4-(3-Chloro-phenyl)-2-(5,6-dimethoxy-benzoimidazol-1-yl)-thiazole-5-carboxylic acid thiazol-2-ylamide]  0.252 µM
11. COc1ccc2c(c1)ncn2-c1nc(-c2ccccc2)c(C(=O)O)s1 [Example 62, 2-(5-Methoxy-benzoimidazol-1-yl)-4-phe-nyl-thiazole-5-car-boxylic acid]  0.261 µM
12. COc1cc2ncn(-c3nc(-c4cccc(Cl)c4)c(C(=O)Nn4cnnc4)s3)c2cc1OC [Example 57, 4-(3-Chloro-phenyl)-2-(5,6-dimethoxy-benzoimidazol-1-yl)-thiazole-5-carboxylic acid [1,2,4]triazol-4-ylamide]  0.344 µM
13. COc1cc2ncn(-c3nc(-c4ccc(C(F)(F)F)c(Cl)c4)c(C(=O)O)s3)c2cc1OC [Example 45, 4-(3-Chloro-4-trifluoromethyl-phenyl)-2-(5,6-dimethoxy-benzoimidazol-1-yl)-thiazole-5-carboxylic acid]  0.354 µM
14. COc1cc2ncn(-c3nc(-c4ccc5c(ccn5C)c4)c(C(=O)O)s3)c2cc1OC [Example 46, 2-(5,6-Dimethoxy-benzoimidazol-1-yl)-4-(1-methyl-1H-indol-5-yl)-thiazole-5-carboxylic acid]  0.368 µM
15. COc1cc2ncn(-c3nc(-c4cccc(Cl)c4)c(C(N)=O)s3)c2cc1OC [Example 36, 4-(3-Chloro-phenyl)-2-(5,6-dimethoxy-benzoimidazol-1-yl)-thiazole-5-carboxylic acid amide]  0.431 µM
16. COc1cc2ncn(-c3nc(-c4ccc(F)c(F)c4)c(C(=O)O)s3)c2cc1OC [Example 47, 4-(3,4-Difluoro-phenyl)-2-(5,6-dimethoxy-benzoimidazol-1-yl)-thiazole-5-carboxylic acid]  0.542 µM
17. COc1cc2ncn(-c3nc(-c4cccc(Cl)c4)c(C(=O)NNC(=O)c4cccc(C)c4)s3)c2cc1OC [Example 58, 3-Methyl-benzoic acid N′-[4-(3-chloro-phenyl)-2-(5,6-dimethoxy-benzoimidazol-1-yl)-thiazole-5-carbonyl]-hydrazide]  0.586 µM
18. COc1cc2ncn(-c3nc(-c4ccccc4)c(C(=O)Nc4ccccc4)s3)c2cc1OC [Example 38, 2-(5,6-Dimethoxy-benzoimidazol-1-yl)-4-phenyl-thiazole-5-carboxylic acid phenylamide]  0.606 µM
19. COCCOc1cc2ncn(-c3nc(-c4ccccc4)c(C(=O)O)s3)c2cc1OCCOC [Example 48, 2-[5,6-Bis-(2-methoxy-ethoxy)-benzoimidazol-1-yl]-4-phenyl-thiazole-5-carboxylic acid]  0.819 µM
20. COc1cc2ncn(-c3nc(-c4cccc(CO)c4)c(C(=O)O)s3)c2cc1OC [Example 49, 2-(5,6-Dimethoxy-benzoimidazol-1-yl)-4-(3-hydroxymethyl-phenyl)-thiazole-5-carboxylic acid]  1.08 µM
21. O=C(O)c1sc(-n2cnc3cc(O)c(O)cc32)nc1-c1ccccc1 [Example 39, 2-(5,6-Dihydroxybenzoimidazol-1-yl)-4-phenyl-thiazole-5-carboxylic acid]  2.02 µM
22. COc1cc2ncn(-c3nc(-c4ccc5c(c4)OCCO5)c(C(=O)O)s3)c2cc1OC [Example 50, 4-(2,3-Dihydro-benzo[1,4]dioxin-6-yl)-2-(5,6-dimethoxy-benzoimidazol-1-yl)-thiazole-5-carboxylic acid]  2.34 µM
23. C=Cc1ccc(-c2nc(-n3cnc4cc(OC)c(OC)cc43)sc2C(=O)O)cc1 [Example 51, 2-(5,6-Dimethoxy-benzoimidazol-1-yl)-4-(4-vinyl-phenyl)-thiazole-5-carboxylic acid]  2.67 µM
24. COc1cc2ncn(-c3nc(-c4cccnc4)c(C(=O)O)s3)c2cc1OC [Example 33, 2-(5,6-Dimethoxy-benzoimidazol-1-yl)-4-pyridin-3-yl-thiazole-5-carboxylic acid]  4.41 µM
25. COc1cc2ncn(-c3nc(-c4cccc(Cl)c4)c(C(=O)Nc4cc[nH]c(=O)n4)s3)c2cc1OC [Example 60, 4-(3-Chloro-phenyl)-2-(5,6-dimethoxy-benzoimidazol-1-yl)-thiazole-5-carboxylic acid (2-oxo-1,2-dihydro-pyrimidin-4-yl)-amide]  4.43 µM
26. O=C(O)c1sc(-n2cnc3cccc(O)c32)nc1-c1ccccc1 [Example 61, 2-(7-Hydroxy-benzoimidazol-1-yl)-4-phenyl-thiazole-5-carboxylic acid]  4.68 µM
27. COc1cc2ncn(-c3nc(-c4cccc(C(=O)N(C)C)c4)c(C(=O)O)s3)c2cc1OC [Example 52, 2-(5,6-Dimethoxy-benzoimidazol-1-yl)-4-(3-dimethylcarbamoyl-phenyl)-thiazole-5-carboxylic acid]  8.87 µM
